Literature values in patent publication US6610313B2, “Lysophospholipids composition with water solubility” (Doosan Corporation, priority 2001, dated 2003).

Columns and labels:
phospholipase D = details: Proc. Natl. Acad. Sci. USA, Vol.94, pp12717-12721
tomato = details: U.S. Pat. Nos. 5,220,341 and 5,126,155
[1] = LPE alone

| inhibition effect of phospholipase D (phospholipase D) | water solubility of LPE itself [1] | Substance | aging of leaves and fruits of tomato (tomato) | storage time of tomato after harvesting (tomato) |
| --- | --- | --- | --- | --- |
| most excellent | not water-soluble | lysophosphatidylethanolamine [LPE] | inhibits the aging of leaves and fruits of tomato | extends the storage time of tomato after harvesting |
| only a slight activity | – | lysophosphatidylcholine [LPC] | – | – |
| opposite | – | lysophosphatidylglycerol [LPG, reference compound] | – | – |
| gradually decreases | – | lysophosphatidylinositol [LPI] | – | – |
| cannot inhibit | – | lysophosphatidylic acid [LPA, reference compound] | – | – |

| Substance | inhibition effect of phospholipase D (phospholipase D) | water solubility of LPE itself [1] | aging of leaves and fruits of tomato (tomato) | storage time of tomato after harvesting (tomato) |
| --- | --- | --- | --- | --- |
| lysophosphatidylserine [LPS, reference compound] | opposite | – | – | – |
